The text below walks through data of patent US20240299452A1, “Rapamycin and Cell Therapy” (Innovative Cellular Therapeutics Holdings, Ltd., priority 2023, published 2024).

For data set [1] the following is noted: taken orally at a dose of 2 mg/day; read-out: maximum blood concentration (Cmax); cited from earlier work.
For data set [2], the system named is CD19 CAR T cells stimulated with nalm6 cells. Kind of data set: CAR T cell proliferation after 96 hours with rapamycin. It is filed as cell-based. The conditions noted are these: nalm6 stimulation, CD4+ and CD8+ subsets. As for the experimental part: The following study investigated the effects of rapamycin on CAR T cells and tumor cell lines. In the first part of the experiment, cytokine release assays were performed. […] In the same experiments, T cell proliferation was assessed to determine whether rapamycin affects the expansion of CAR T cells. […] In the last part of the study, rapamycin was directly applied to two types of tumor cell lines, PC3 and LNCAP, to assess its impact on tumor cell proliferation. […] It can decrease the proliferation of tumor cells, aligning with clinical observations.
The bar graphs depict the proliferation rates of CAR T cells, specifically CD4+ and CD8+ subsets, after 96 hours of stimulation with CD19 antigen and varying concentrations of rapamycin. […] CD8: The right graph indicates the percentage of proliferating CD8+ CAR T cells under the same treatment conditions as CD4+.

For the compound `CO[C@H]1C[C@@H]2CC[C@@H](C)[C@@](O)(O2)C(=O)C(=O)N2CCCC[C@H]2C(=O)O[C@H]([C@H](C)C[C@@H]2CC[C@@H](O)[C@H](OC)C2)CC(=O)[C@H](C)/C=C(\C)[C@@H](O)[C@@H](OC)C(=O)[C@H](C)C[C@H](C)/C=C/C=C/C=C/1C` [rapamycin, Rapamycin], the Cmax in data set [1] is 16 nM. The “CAR T cell proliferation” value in data set [2] was “not inhibited”.
